Read-outs that look alike come from different tables or passages of the source.
What was measured:
human ETA receptors = target: T1, human ETA receptors (Homo sapiens, UniProt P25101); experiment: Binding Test #1: inhibition of 125I-ET-1 binding to ETA receptors (TE 671 cell membranes); conditions: for IC50: read-out: ETA
T1 construct: endogenous in cells; host or cells: TE 671 cells (ATCC HTB 139)
T1 sequence (P25101 21-427): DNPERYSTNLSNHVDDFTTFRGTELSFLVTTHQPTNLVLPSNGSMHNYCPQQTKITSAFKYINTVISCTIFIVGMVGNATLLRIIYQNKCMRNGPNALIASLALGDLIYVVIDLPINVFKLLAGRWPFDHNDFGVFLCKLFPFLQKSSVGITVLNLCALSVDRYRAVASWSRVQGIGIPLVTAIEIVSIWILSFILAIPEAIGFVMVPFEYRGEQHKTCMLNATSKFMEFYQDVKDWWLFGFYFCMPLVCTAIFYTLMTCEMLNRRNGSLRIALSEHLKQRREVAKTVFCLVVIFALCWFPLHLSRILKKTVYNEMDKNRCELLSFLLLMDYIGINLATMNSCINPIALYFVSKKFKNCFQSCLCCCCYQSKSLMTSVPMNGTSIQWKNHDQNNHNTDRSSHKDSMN
Outline: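 Membranes from TE 671 cells (up to 8 μg protein) incubated with ¹²⁵I-ET-1 and compound (1 nM–100 μM final) in 30 mM HEPES pH 7.4, 150 mM NaCl, 5 mM MgCl2, 0.5% bacitracin, 16–18 h at 4 °C or alternatively at 24 °C. Nonspecific binding with 80 nM ET-1; bound pellet gamma-counted, % inhibition calculated, usually triplicate.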

[1] = Oral half-life and peak plasma levels in rat; assay type: in vivo; conditions: for Peak Plasma Levels: in vivo; for POt½ in Rat: oral
Description: As used herein, bioavailability refers to the rate and extent of absorption. Methods for determining bioavailability are well known to those of skill in the art. For example, bioavailability of any of the compounds described herein can be determined empirically by administration of the compound to an animal, followed by taking blood samples over time and measuring the blood concentration of the compound. In vivo half life (t½) is defined as the time it takes for the concentration of the compound in the blood to be reduced by one-half. Estimations of the area under the curve for intravenous administration can be used to estimate the area under the curve for oral administration, yielding bioavailability data. See, e.q., Milo Gibal (1991) Biopharmaceutics and Pharmacology, 4th edition (Lea and Sediger).
Table 4 lists oral half-life, bioavailability, and in vivo activity of selected exemplary compounds. The in vivo activity was measured in a pulmonary hypertension model and is a measure of the activity of the compounds at selected dosages.

human ETB receptor = target: T2, human ETB receptor (Homo sapiens, UniProt P24530); experiment: Binding Test #2: inhibition of 125I-ET-1 binding to ETB receptors (transfected COS7 cell membranes); conditions: read-out: ETB
T2 construct: expressed in transfected cells; host or cells: COS7 cells
T2 sequence (P24530 27-442): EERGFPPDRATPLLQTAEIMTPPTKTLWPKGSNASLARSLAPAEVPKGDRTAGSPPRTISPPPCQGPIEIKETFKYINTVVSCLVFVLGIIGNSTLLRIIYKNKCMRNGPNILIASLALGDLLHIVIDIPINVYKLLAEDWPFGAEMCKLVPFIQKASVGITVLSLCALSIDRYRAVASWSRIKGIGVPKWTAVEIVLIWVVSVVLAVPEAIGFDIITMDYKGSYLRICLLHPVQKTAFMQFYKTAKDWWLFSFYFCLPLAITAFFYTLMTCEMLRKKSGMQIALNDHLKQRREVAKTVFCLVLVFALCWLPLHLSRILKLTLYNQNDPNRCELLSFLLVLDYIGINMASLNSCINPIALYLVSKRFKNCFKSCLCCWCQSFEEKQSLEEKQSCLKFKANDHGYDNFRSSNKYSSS
Outline: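 Competition with 125I-ET-1 for binding to membranes from COS7 cells transfected with human ETB receptor, used at 1 μg/50 μl binding buffer. Membranes prepared in HEPES pH 7.4 with aprotinin, including a DNase/MnCl2 step at 37 °C for 30 min.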

[2] = Table 3, † incubation at 24° C.
[3] = Table 1, † incubation at 24° C.
[4] = Table 2, † incubation at 24° C.

Cc1cc(C)c(NC(=O)c2sccc2S(=O)(=O)Nc2onc(C)c2Cl)c(C(=O)C2CC2)c1 [3-(((4-chloro-3-methyl-5-isoxazolyl)amino)sulfonyl)-N-(2-(cyclopropylcarbonyl)-4,6-dimethylphenyl)-2-thiophenecarboxamide]
ETA/ETB selectivity (human ETA receptors; Table 3): 45000^∥ | IC50 (human ETA receptors; [2]): 0.00036 µM | Peak Plasma Levels [1]: 53 µg/mL | POt½ in Rat [1]: 5.5 h

Cc1cc(C)c(NC(=O)c2sccc2S(=O)(=O)Nc2onc(C)c2Cl)c(C(=O)C(C)C)c1 [3-(((4-chloro-3-methyl-5-isoxazolyl)amino)sulfonyl)-N-(2-isobutyryl-4,6-dimethylphenyl)-2-thiophenecarboxamide]
ETA/ETB selectivity (human ETA receptors; Table 3): 14000^∥ | IC50 (human ETA receptors; [2]): 0.00111 µM | Peak Plasma Levels [1]: 59 µg/mL | POt½ in Rat [1]: 5.4 h

Cc1noc(NS(=O)(=O)c2ccc(-c3ccon3)s2)c1Br [Example 10, N-(4-Bromo-3-methyl-5-isoxazolyl)-5-(3-isoxazolyl)thiophene-2-sulfonamide]
melting point: 120 to 123 °C

Cc1cc(C)c(N(C(=O)c2sccc2S(N)(=O)=O)c2onc(C)c2Cl)c(C)c1O [Example 52, N^2-(4-Chloro-3-methyl-5-isoxazolyl)-N-(3-hydroxy-2,4,6-trimethylphenyl)-3-sulfamoyl-2-thiophenecarboxamide]
melting point: 75 to 78 °C

Cc1noc(NS(=O)(=O)c2ccsc2C(N)=O)c1Br [N-(4-bromo-3-methyl-5-isoxazolyl)-2-(aminocarbonyl)thiophene-3-sulfonamide]
melting point: 168 to 170 °C

Cc1noc(NS(=O)(=O)c2ccsc2C(=O)Nc2ccccc2O)c1Br [N-(4-bromo-3-methyl-5-isoxazolyl)-2-[(2-hydroxyphenyl)aminocarbonyl]thiophene-3-sulfonamide]
melting point: 42 to 44 °C

Cc1ccc(OCc2sccc2S(=O)(=O)Nc2onc(C)c2Br)cc1 [N-(4-bromo-3-methyl-5-isoxazolyl)-2-[(4-methylphenoxy)methyl]thiophene-3-sulfonamide]
melting point: 128 to 130 °C

Cc1cc(C)c(NC(=O)c2sccc2S(=O)(=O)Nc2onc(C)c2Cl)c(C)c1C#N [N-(4-chloro-3-methyl-5-isoxazolyl)-2-(3-cyano-2,4,6-trimethylphenylaminocarbonyl)thiophene-3-sulfonamide]
Peak Plasma Levels [1]: 20 µg/mL | POt½ in Rat [1]: 3.9 h

Cc1cc(C)c(NC(=O)c2sccc2S(=O)(=O)Nc2onc(C)c2Cl)c(C)c1CC#N [N-(4-chloro-3-methyl-5-isoxazolyl)-2-(3-cyanomethyl-2,4,6-trimethylphenylaminocarbonyl)thiophene-3-sulfonamide]
IC50 (human ETA receptors; [3]): 0.0006 µM | IC50 (human ETB receptor; [3]): ~45 µM | Peak Plasma Levels [1]: 40.2 µg/mL | POt½ in Rat [1]: 3.4 h

Cc1cc(C)c(NC(=O)c2sccc2S(=O)(=O)Nc2onc(C)c2Cl)c(C)c1CO [N-(4-chloro-3-methyl-5-isoxazolyl)-2-(3-hydroxymethyl-2,4,6-trimethylphenylaminocarbonyl)thiophene-3-sulfonamide]
IC50 (human ETA receptors; [3]): 0.0004 µM | IC50 (human ETB receptor; [3]): ~80 µM | Peak Plasma Levels [1]: 3 µg/mL | POt½ in Rat [1]: 1.5 h

Cc1cc(C)c(NS(C)(=O)=O)c(C)c1NC(=O)c1sccc1S(=O)(=O)Nc1onc(C)c1Cl [N-(4-chloro-3-methyl-5-isoxazolyl)-2-(3-methanesulfonylamino-2,4,6-trimethylphenylaminocarbonyl)thiophene-3-sulfonamide]
Peak Plasma Levels [1]: 2.6 µg/mL | POt½ in Rat [1]: 5.9 h

COc1ccc2c(S(=O)(=O)Nc3onc(C)c3Cl)c(Cc3ccc4c(c3)OCO4)sc2c1 [N-(4-chloro-3-methyl-5-isoxazolyl)-6-methoxy-2-[3,4-(methylenedioxy)benzyl]benzo[b]thiophene-3-sulfonamide]
IC50 (human ETA receptors; [3]): ~2 µM | IC50 (human ETB receptor; [3]): 2.39 µM

Cc1noc(NS(=O)(=O)c2ccsc2C(=O)OC2CCCCC2)c1Cl [N-(4-chloro-3-methyl-5-isoxozolyl-2-(cyclohexyloxycarbonyl)thiophene-3-sulfonamide]
IC50 (human ETA receptors; [3]): 0.44 µM | IC50 (human ETB receptor; [3]): 34 µM

Cc1onc(NS(=O)(=O)c2c(Cc3ccc4c(c3)OCO4)sc3ccccc23)c1Cl [N-(4-chloro-5-methyl-3-isoxazolyl)-2-[3,4-(methylenedioxy)benzyl]benzo[b]thiophene-3-sulfonamide]
IC50 (human ETA receptors; [3]): 0.0055 µM | IC50 (human ETB receptor; [3]): 0.364 µM

Cc1onc(NS(=O)(=O)c2ccc(-c3ccccc3)cc2)c1Cl [N-(4-chloro-5-methyl-3-isoxazolyl)-4-biphenylsulfonamide]
IC50 (human ETA receptors; Table 2, incubation at 4° C.): 3.7 µM | IC50 (human ETA receptors; [4]): 18.6 µM | IC50 (human ETB receptor; Table 2, incubation at 4° C.): 0.23 ± 0.01 µM | IC50 (human ETB receptor; [4]): 1.29 µM

N-2-[3,4-(methylenedioxy)phenylacetyl]thiophene-3-sulfonamide
IC50 (human ETA receptors; [3]): 1.8 µM | IC50 (human ETB receptor; [3]): 32.5 µM

N-(3,4-dimethyl-5-isoxazolyl)-2-(4-tolylacetylphenyl)thiophene-3-sulfonamide
IC50 (human ETA receptors; [3]): 0.0027 µM | IC50 (human ETB receptor; [3]): 29.2 µM

N-(4-bromo-3-methyl-5-isoxazolyl)-1-[3,4-(methylenedioxy)benzyl]indole-2-sulfonamide
IC50 (human ETA receptors; [3]): 5.29 µM | IC50 (human ETB receptor; [3]): 18.6 µM

N-(4-bromo-3-methyl-5-isoxazolyl)-2′-methoxyphenyl-4-biphenylsulfonamide
IC50 (human ETA receptors; Table 2, incubation at 4° C.): 3.3 ± 3.5 µM | IC50 (human ETB receptor; Table 2, incubation at 4° C.): 0.41 ± 0.14 µM

N-(4-bromo-3-methyl-5-isoxazolyl)-3′,4′-methylenedioxyphenyl-4-biphenylsulfonamide
IC50 (human ETA receptors; [4]): 38.2 ± 4.95 µM | IC50 (human ETB receptor; [4]): 3 ± 0.78 µM

N-(4-bromo-3-methyl-5-isoxazolyl)-3′-methoxyphenyl-4-biphenylsulfonamide
IC50 (human ETA receptors; Table 2, incubation at 4° C.): 4.97 ± 3.4 µM | IC50 (human ETA receptors; [4]): 163 ± 7.14 µM | IC50 (human ETB receptor; Table 2, incubation at 4° C.): 0.66 ± 0.25 µM | IC50 (human ETB receptor; [4]): 2.08 ± 0.23 µM

N-(4-bromo-3-methyl-5-isoxazolyl)-4′-methoxyphenyl-4-biphenylsulfonamide
IC50 (human ETA receptors; Table 2, incubation at 4° C.): 14.7 ± 5.6 µM | IC50 (human ETA receptors; [4]): 122 ± 2.12 µM | IC50 (human ETB receptor; Table 2, incubation at 4° C.): 1.15 ± 0.44 µM

N-(4-bromo-3-methyl-5-isoxazolyl)-4′-methylphenyl-4-biphenylsulfonamide
IC50 (human ETA receptors; Table 2, incubation at 4° C.): 14.5 ± 9.6 µM | IC50 (human ETA receptors; [4]): 22.2 ± 3.77 µM | IC50 (human ETB receptor; Table 2, incubation at 4° C.): 0.046 ± 0.044 µM | IC50 (human ETB receptor; [4]): 0.168 ± 0.0032 µM

N-(4-bromo-3-methyl-5-isoxazolyl)-4′-trifluorophenyl-4-biphenylsulfonamide
IC50 (human ETA receptors; Table 2, incubation at 4° C.): 5.4 ± 0.3 µM | IC50 (human ETA receptors; [4]): 25.9 ± 13.7 µM | IC50 (human ETB receptor; Table 2, incubation at 4° C.): 0.083 ± 0.02 µM | IC50 (human ETB receptor; [4]): 0.71 ± 0.43 µM

N-(4-bromo-5-methyl-3-isoxazolyl)-5-(4-methylphenyl)thiophene-2-sulfonamide
IC50 (human ETA receptors; Table 1, incubation at 4° C.): 7.1 µM | IC50 (human ETA receptors; [3]): 15.8 µM | IC50 (human ETB receptor; Table 1, incubation at 4° C.): 0.359 µM | IC50 (human ETB receptor; [3]): 0.25 µM

N-(4-chloro-3-methyl-5-isoxazolyl)-2-[2-hyroxyproyl-4,5-(methylenedioxy)phenylaminocarbonyl]thiophene-3-sulfonamide
IC50 (human ETA receptors; [3]): 0.0073 µM | IC50 (human ETB receptor; [3]): 8.3 µM

N-(4-chloro-3-methyl-5-isoxazolyl)-2-[2-methyl-4,5-(methylenedioxy)phenylhydroxyimino]thiophene-3-sulfonamide
IC50 (human ETA receptors; [3]): 0.794 µM | IC50 (human ETB receptor; [3]): 6.49 µM

N-(4-chloro-3-methyl-5-isoxazolyl)-2-[β-(dimethylamino)-3,4-(methylenedioxy)phenethyl]thiophene-3-sulfonamide
IC50 (human ETA receptors; [3]): 20.9 µM | IC50 (human ETB receptor; [3]): ~100 µM

N-(4-chloro-3-methyl-5-isoxazolyl)-2-[β-acetoxy-2-methyl-4,5-(methylenedioxy)styryl]thiophene-3-sulfonamide
IC50 (human ETA receptors; Table 1, incubation at 4° C.): 0.00544 µM | IC50 (human ETB receptor; [3]): 3.74 µM

N-(4-chloro-3-methyl-5-isoxazolyl)-2-phenylbenzo[b]thiophene sulfonamide
IC50 (human ETA receptors; [3]): 0.932 µM | IC50 (human ETB receptor; [3]): 46.8 µM

Source: patent US6683103B2, “Sulfonamides for treatment of endothelin-mediated disorders” (Texas Biotechnology Corporation, priority 1997, dated 2004)
